Experimental findings from US5614508A, “Amino acid derivatives of substituted quinoxaline 2,3-dione derivatives as glutamate receptor antagonists” (Warner-Lambert Company, priority 1995, dated 1997) are described below.

Assay [1] has as its target AMPA receptors. Description: binding affinity for the AMPA receptors (Honore et al.). As to conditions: Table 1, AMPA.
Assay [2] deals with kainate site (non-NMDA receptor). The assay is described as follows: binding affinity for the kainate site (non-NMDA receptor) (London and Coyle). As to conditions: Table 1, KA.

On to `C=Cc1c(Br)cc2[nH]c(=O)c(=O)[nH]c2c1CN(C)CC(=O)O` [Compound 1, [(7-Bromo-2,3-dioxo-6-vinyl-1,2,3,4-tetrahydro-quinoxalin-5-ylmethyl)-methyl-amino]-acetic acid], for which the IC50 in assay [1] was found to be 1760 nM. Moreover, the “IC50 KA” value in assay [2] came to 4.68 µM.
Consider `CCc1c(Br)cc2[nH]c(=O)c(=O)[nH]c2c1CN(C)CC(=O)O` [Compound 2, [(7-Bromo-6-ethyl-2,3-dioxo-1,2,3,4-tetrahydro-quinoxalin-5-ylmethyl)-methyl-amino]-acetic acid], for which the IC50 in assay [1] was 2350 nM. The “IC50 KA” value in assay [2] amounted to 6.72 µM.
`CCOC(=O)CN(C)Cc1c(CC)c([N+](=O)[O-])cc2[nH]c(=O)c(=O)[nH]c12` [Compound 3, [(6-Ethyl-7-nitro-2,3-dioxo-1,2,3,4-tetrahydro-quinoxalin-5-ylmethyl)-methyl-amino]-acetic acid ethyl ester] displayed a concentration for half-maximal inhibition (IC50) in assay [1] of 128 nM. Further, the “IC50 KA” value in assay [2] was 3.48 µM.
`CCc1ccc2[nH]c(=O)c(=O)[nH]c2c1CN(C)CC(=O)O` [Compound 4, [(6-Ethyl-2,3-dioxo-1,2,3,4-tetrahydro-quinoxalin-5ylmethyl)-methyl-amino]-acetic acid] gave an IC50 in assay [1] of 3920 nM. The “IC50 KA” value in assay [2] came to 17.05 µM.
